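48-hour exposure; five concentrations; linearly interpolated endpoints. Here, GI50 denotes the concentration required for 50% inhibition of growth.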 The source made the active and inactive calls. Cut-off read from the data, not from the text of the source: active = GI50 up to about 1.1 µM and inactive = higher.

Common to all, as to assay: NCI tumour cell line growth inhibition, 48 h
The test system of test [1] is HCT-15.
Test [2] deals with HOP-62.
Test [3] concerns LOX IMVI.
Test [4] concerns MCF7.
Test [5] relates to Malme-3M.
Test [6] relates to NCI-H23.
In test [7] the test system is OVCAR-3.
For test [8], the system named is PC-3.
The subject of test [9] is RPMI-8226.
Test [10] concerns RXF 393.
Test [11] has as its system SW-620.
Test [12] relates to TK-10.
In test [13] the test system is UACC-257.
For test [14], the system named is UO-31.
Test [15] deals with Hs-578T.
Test [16] deals with MOLT-4.
In test [17] the test system is SN12C.
Test [18] relates to HOP-92.

On to `CC(C)(C)/N=C1\C(=O)C2(C)CCC1C2(C)C` (stereo unspecified), for which the GI50 in [1] was more than 100 µM; in [2] it was > 100 µM (inactive); in test [3], > 100 µM (inactive); in test [4], 16.8 µM (inactive); in test [5] it was > 100 µM (inactive); in test [6], > 100 µM (inactive). Besides, the GI50 in test [7], in [8], in test [9], in test [10], in test [11] and in [12] was > 100 µM (inactive) each time. For the same compound, the GI50 in test [13] and in test [14] was > 100 µM (inactive) each time.

With `CCOC(=O)c1ccc(-n2cnc(-c3ccc([N+](=O)[O-])cc3)c2)cc1`, the GI50 was more than 100 µM in test [1]; 94.2 µM (inactive) in test [2]; > 100 µM (inactive) in test [15]; > 100 µM (inactive) in [3]; 72.9 µM (inactive) in [4]; > 100 µM (inactive) in test [16]. The GI50 in [5] was 80.7 µM (inactive); in test [6], 82.6 µM (inactive); in [7] it was 79.8 µM (inactive); in test [8], > 100 µM (inactive); in test [9], > 100 µM (inactive); in test [17] it was > 100 µM (inactive). Further, the GI50 in test [11] was 75.7 µM (inactive); in [12], 33.9 µM (inactive); in [13] it was > 100 µM (inactive); in [14], > 100 µM (inactive).

Consider `CCCCCCn1c(SC)nc(COC(=O)NC)c1COC(=O)NC`, for which the GI50 in test [1] is 32.4 µM; in [2], 19.6 µM (inactive); in test [15], 20.4 µM (inactive); in [3], 21.3 µM (inactive); in test [4], 20.1 µM (inactive); in test [16], 13 µM (inactive). Also, the GI50 in test [6] is 21.2 µM (inactive); in [7], 17.9 µM (inactive); in test [8], 15.1 µM (inactive); in test [9], 22.4 µM (inactive); in [17] it was 16.7 µM (inactive); in test [11], 19.2 µM (inactive). Also, the GI50 in test [12] was 16.7 µM (inactive); in test [13], 19.4 µM (inactive); in test [14], 16.9 µM (inactive).

As to `FC1(F)[Se]C2C3CCC(C3)C2C1(F)F` (stereo unspecified), the GI50 in test [1] is more than 100 µM; in test [2] it was > 100 µM (inactive); in test [15], > 100 µM (inactive); in test [3], > 100 µM (inactive); in [4], > 100 µM (inactive); in test [16], > 100 µM (inactive). For the same compound, the GI50 in test [5], in test [7], in [8], in [9], in test [10] and in test [17] was > 100 µM (inactive) each time. Further, the GI50 in [11], in [12] and in [14] was > 100 µM (inactive) throughout.

Regarding `CC1(C)CCC[C@]2(C)[C@@H]1CC[C@@]13O[C@@H]1C1=C(CO)C(=O)OC1=C[C@@H]23`, the GI50 in test [1] is 14.4 µM; in [2], 25.6 µM (inactive); in test [18], 15.4 µM (inactive); in [4], 26.4 µM (inactive); in [16], 17.3 µM (inactive); in test [5], 1.1 µM (active). Also, the GI50 in test [6] is 17.5 µM (inactive); in test [8], 14.9 µM (inactive); in test [9], 21.1 µM (inactive); in test [10], 19.9 µM (inactive); in test [17], 12.9 µM (inactive); in [11], 18.9 µM (inactive). The GI50 was 25.2 µM (inactive) in [12], 18.2 µM (inactive) in [13] and 11.7 µM (inactive) in test [14].

For the compound `Nc1cc(OCC2CCCCC2)nc(N)n1`, the GI50 is more than 100 µM in test [1]; > 100 µM (inactive) in test [2]; > 100 µM (inactive) in [18]; > 100 µM (inactive) in test [15]; > 100 µM (inactive) in test [3]; 82.2 µM (inactive) in [16]. The GI50 in test [5] was > 100 µM (inactive); in test [6], 84.5 µM (inactive); in [7] it was > 100 µM (inactive); in test [8], > 100 µM (inactive); in test [9], > 100 µM (inactive); in [10], > 100 µM (inactive). Further, the GI50 was > 100 µM (inactive) in test [17]; > 100 µM (inactive) in test [11]; > 100 µM (inactive) in test [12]; 76.9 µM (inactive) in test [13]; > 100 µM (inactive) in test [14].

Take `O=Cc1ccc2[nH]c(=O)oc2c1`: the GI50 was more than 100 µM in [1]; > 100 µM (inactive) in test [2]; > 100 µM (inactive) in [15]; > 100 µM (inactive) in test [3]; > 100 µM (inactive) in test [4]; 60.4 µM (inactive) in [16]. Further, the GI50 in test [5] is > 100 µM (inactive); in test [6], > 100 µM (inactive); in [7] it was > 100 µM (inactive); in test [8] it was > 100 µM (inactive); in test [9] it was > 100 µM (inactive); in test [10], 94.8 µM (inactive). For the same compound, the GI50 in test [17] is > 100 µM (inactive); in test [11] it was > 100 µM (inactive); in test [12], > 100 µM (inactive); in [13] it was > 100 µM (inactive); in test [14] it was 23.1 µM (inactive).

Take `CCn1c2ccccc2c2ccc(C3C(C(=O)OC)=C(C)NC(C)=C3C(=O)OC)cc21`: the GI50 in test [1] was 46.3 µM; in [2] it was 55.1 µM (inactive); in test [3], 35.8 µM (inactive); in test [4], 27 µM (inactive); in test [16], 28.2 µM (inactive); in test [5] it was 20 µM (inactive). For the same compound, the GI50 is 56 µM (inactive) in [6]; 33.3 µM (inactive) in test [7]; 21.1 µM (inactive) in [9]; 15.4 µM (inactive) in test [10]; 45.1 µM (inactive) in test [17]; 66.1 µM (inactive) in [11]. Moreover, the GI50 in [12] is 59.2 µM (inactive); in test [13], 48.2 µM (inactive); in test [14] it was 39 µM (inactive).

With `COC(=O)CNC(=O)Nc1cc(N2C(=O)ON3C2C(C)(C)N(O)C3(C)C)ccc1C` (stereo unspecified), the GI50 in test [1] is 66.5 µM; in [2] it was > 100 µM (inactive); in test [15], > 100 µM (inactive); in test [3], > 100 µM (inactive); in [4], > 100 µM (inactive); in [16], > 100 µM (inactive). Besides, the GI50 in [5], in [6], in test [7], in [8], in test [10] and in [17] was > 100 µM (inactive) in each case. Also, the GI50 in test [11], in [12], in test [13] and in test [14] was > 100 µM (inactive) in each case.

Turning to `CN1CCN(CCCN)CC1`, the GI50 is more than 100 µM in test [1]; > 100 µM (inactive) in [2]; > 100 µM (inactive) in [15]; > 100 µM (inactive) in test [3]; > 100 µM (inactive) in test [4]; > 100 µM (inactive) in [16]. Moreover, the GI50 in test [5], in test [6], in test [7], in test [8], in test [9] and in test [10] was > 100 µM (inactive) in each case. For the same compound, the GI50 in [17], in test [11], in test [12], in [13] and in test [14] was > 100 µM (inactive) throughout.

Take `CC1=C(N2CC2)C(=O)c2ccccc2C1=O`: the GI50 was 1.05 µM in [1]; 1.04 µM (active) in test [2]; 1.36 µM (inactive) in test [15]; 1.22 µM (inactive) in [3]; 0.249 µM (active) in test [4]; 1.11 µM (active) in test [16]. Also, the GI50 is 1.27 µM (inactive) in test [5]; 1.12 µM (inactive) in test [7]; 0.897 µM (active) in [8]; 0.422 µM (active) in [10]; 0.312 µM (active) in [17]; 0.185 µM (active) in test [11]. Also, the GI50 in test [12] was 2.08 µM (inactive); in test [13] it was 0.327 µM (active); in test [14], 0.78 µM (active).

As for `O=C(O)CNn1c(SCC(=O)O)nnc(/C=C/c2c(O)ccc3ccccc23)c1=O`, the GI50 was 17.6 µM in test [1]; 16.1 µM (inactive) in [2]; 12.8 µM (inactive) in test [15]; 7.5 µM (inactive) in [3]; 24 µM (inactive) in test [4]; 40.3 µM (inactive) in test [5]. In addition, the GI50 is 17.1 µM (inactive) in test [6]; 22.7 µM (inactive) in [7]; 77.3 µM (inactive) in test [8]; 29.8 µM (inactive) in test [9]; 11.2 µM (inactive) in test [17]; 44.9 µM (inactive) in test [11]. The values for the GI50 in test [13] and in test [14] were 35.9 µM (inactive) and 29.4 µM (inactive), respectively.

Consider `COc1ccc(-c2c(N)n(-c3cccc(C(=O)O)c3)c(=O)c3cc([N+](=O)[O-])ccc23)cc1`, for which the GI50 was more than 100 µM in [1]; > 100 µM (inactive) in test [2]; > 100 µM (inactive) in [15]; > 100 µM (inactive) in test [3]; > 100 µM (inactive) in [4]; > 100 µM (inactive) in test [16]. Moreover, the GI50 in [6], in [7], in test [8], in [9], in test [10] and in test [11] was > 100 µM (inactive) in each case. The GI50 in test [12], in [13] and in test [14] was > 100 µM (inactive) throughout.

The values above are taken from ChEMBL document CHEMBL1201862, “PubChem BioAssay data set” (2004).
